These results are taken from ChEMBL document CHEMBL5584253, “Polyfunctionalized organoselenides: New synthetic approach from selenium-containing cyanohydrins and anti-melanoma activity” (Bioorg Med Chem Lett, 2024).

Activity calls are given as the source filed them. The rule behind the calls is not given here.

Series [1] deals with BALB/3T3. The experiment in a line: Cytotoxicity against mouse BALB/3T3 cells assessed as reduction in cell viability at 10 to 50 ug/ml measured after 72 hrs. Type of series: toxicity, cell-based. The conditions noted are these: balb/3t3, 72 h, dose 10-50 µg/ml.
Series [2] deals with B16-F10. The experiment in a line: Antiproliferative activity against mouse B16-F10 cells assessed as reduction in cell viability at 10 to 50 ug/ml measured after 72 hrs. Type of series: functional, cell-based. The note with it: dose 10-50 µg/ml.
In series [3] the test system is BALB/3T3. The experiment in a line: Cytotoxicity against mouse BALB/3T3 cells assessed as reduction in cell viability at 10 to 50 ug/ml measured after 72 hrs by crystal violet staining based analysis. Type of series: toxicity. The conditions noted are these: balb/3t3, 72 h, dose 10-50 µg/ml.
For series [4], the system named is BALB/3T3. The experiment in a line: Cytotoxicity against mouse BALB/3T3 cells assessed as reduction in cell viability at 10 to 50 ug/ml measured after 72 hrs by neutral red staining based analysis. The conditions noted are these: balb/3t3, 72 h, dose 10-50 µg/ml. Type of series: toxicity.
In series [5] the test system is B16-F10. The experiment in a line: Antiproliferative activity against mouse B16-F10 cells assessed as reduction in cell number at 10 to 50 ug/ml measured after 72 hrs. The note with it: dose 10-50 µg/ml. Type of series: functional, cell-based.
Series [6] has as its system BALB/3T3. Nature of the series: Cytotoxicity against mouse BALB/3T3 cells assessed as reduction in cell viability at 50 ug/ml measured after 72 hrs. Type of series: toxicity, cell-based. The conditions noted are these: balb/3t3, 72 h, dose 50 µg/ml.
Series [7] relates to B16-F10. Nature of the series: Antiproliferative activity against mouse B16-F10 cells assessed as reduction in cell number at 50 ug/ml measured after 72 hrs. Type of series: functional, cell-based. The note with it: dose 50.0 µg/ml.
Series [8] relates to B16-F10. Nature of the series: Antiproliferative activity against mouse B16-F10 cells assessed as reduction in cell viability at 50 ug/ml measured after 72 hrs by neutral red uptake assay. Type of series: functional, cell-based. The conditions noted are these: dose 50.0 µg/ml.

With `CCCC[Se]c1ccc(C(O)C(=O)OC)cc1` (centres undefined), in the series with BALB/3T3 [1], the Activity result was “Non-Toxic”. In the series with B16-F10 [2], the result was inactive.

Turning to `OCC(O)c1ccc([Se]c2ccccc2)cc1` (centres undefined), the Activity result with BALB/3T3 [3] and in the series on BALB/3T3 [4] was “Toxic” each time.

With `COC(=O)C(O)c1ccc([Se]c2ccccc2)cc1` (centres undefined), the Activity entry with BALB/3T3 [3] and in the series with BALB/3T3 [4] was “Toxic” each time.

Turning to `O=C(O)C(O)c1ccc([Se]c2ccccc2)cc1` (centres undefined), the outcome in the series on B16-F10 [5] was Active. In addition, the Activity result with BALB/3T3 [1] and with BALB/3T3 [6] was “Non-Toxic” in each case.

On to `COC(=O)C(OC(C)=O)c1ccc([Se]c2ccccc2)cc1` (centres undefined), for which the Activity entry in the series on BALB/3T3 [3] and in the series on BALB/3T3 [4] was “Toxic” throughout.

For `CCCC[Se]c1ccc(C(O)C(=O)O)cc1` (centres undefined), the Activity entry in the series with BALB/3T3 [1] is listed as “Non-Toxic”. Moreover, the result in the series with B16-F10 [7] and in the series with B16-F10 [8] was Active.
